Results: ChEMBL document CHEMBL5385943, “Synthesis, biological evaluation and molecular docking study of pyrimidine linked thiazolidinedione derivatives as potential antimicrobial and antitubercular agents” (Bioorg Med Chem Lett, 2024)
In brackets after ≈: the same amount, converted by molar mass. Activity calls are given as the source filed them. No cut-off for these calls is given here.

Key:
Staphylococcus aureus [1] = test: Antimicrobial activity against Staphylococcus aureus assessed as reduction in microbial growth; format: functional
Staphylococcus aureus [2] = test: Antimicrobial activity against methicillin-resistant Staphylococcus aureus assessed as reduction in microbial growth; format: functional
Bacillus subtilis = test: Antimicrobial activity against Bacillus subtilis assessed as reduction in microbial growth; format: functional
Escherichia coli [3] = test: Antimicrobial activity against Escherichia coli assessed as reduction in microbial growth; format: functional
Candida albicans = test: Antimicrobial activity against Candida albicans assessed as reduction in microbial growth; format: functional
[4] = tested on: Mycobacterium tuberculosis; test: Antitubercular activity against Mycobacterium tuberculosis H37Rv by agar dilution method; format: functional
[5] = Cytotoxicity against human WI-38 cells assessed as reduction in cell growth; format: toxicity, cell-based
[6] = Selectivity index, ratio of CC50 for human WI-38 cells to MIC for Mycobacterium tuberculosis H37Rv; format: toxicity; details: read-out: Selectivity Index
Staphylococcus aureus [7] = test: Antibacterial activity against methicillin resistant Staphylococcus aureus at 1 times MIC measured after 180 mins by time kill assay; format: functional, organism-based
Escherichia coli [8] = test: Antibacterial activity against Escherichia coli at 1 times MIC measured after 150 mins by time kill assay; format: functional, organism-based
Staphylococcus aureus [9] = test: Antibacterial activity against methicillin resistant Staphylococcus aureus at 1 times MIC measured after 120 to 150 mins by time kill assay; format: functional, organism-based; details: time 120-150 min
Escherichia coli [10] = test: Antibacterial activity against Escherichia coli at 1 times MIC measured after 120 to 150 mins by time kill assay; format: functional, organism-based; details: time 120-150 min
Staphylococcus aureus [11] = test: Antibacterial activity against methicillin resistant Staphylococcus aureus at 1 times MIC measured after 150 mins by time kill assay; format: functional, organism-based

Row | Molecule | MIC (Staphylococcus aureus [1]) [µM] | MIC (Staphylococcus aureus [2]) [µM] | MIC (Bacillus subtilis) [µM] | MIC (Escherichia coli [3]) [µM] | MIC (Candida albicans) [µM] | MIC [4] [µM] | CC50 [5] [µM] | selectivity ratio [6] | Activity (Staphylococcus aureus [7]) | Activity (Escherichia coli [8]) | Activity (Staphylococcus aureus [9]) | Activity (Escherichia coli [10]) | Activity (Staphylococcus aureus [11])
1 | O=C1S/C(=C\c2cnc(C(F)(F)F)nc2)C(=O)N1C(=O)c1cc(F)c(F)c(F)c1 | 8.6 | 15.4 | 8.1 | 9.7 | 9.5 | 0.32 (≈ 0.139 µg/mL) | > 50 | 156 | Active | Active | – | – | –
2 | OC(Cn1cncn1)(Cn1cncn1)c1ccc(F)cc1F [FLUCONAZOLE] | – | – | – | – | 14.9 | – | – | – | – | – | – | – | –
3 | O=C1S/C(=C\c2cnc(C(F)(F)F)nc2)C(=O)N1C(=O)c1ccc(Cl)cc1 | 16.8 | 36.4 | 14.4 | 17.8 | 19.4 | 4.83 (≈ 2 µg/mL) | > 50 | 10.3 | – | – | – | – | –
4 | CN[C@@H]1[C@H](O[C@H]2[C@H](O[C@H]3[C@H](O)[C@@H](O)[C@H](N=C(N)N)[C@@H](O)[C@@H]3N=C(N)N)O[C@@H](C)[C@]2(O)C=O)O[C@@H](CO)[C@H](O)[C@H]1O [STREPTOMYCIN] | 11.9 | – | 11.5 | 14.3 | – | – | – | – | – | – | – | – | –
5 | O=C1S/C(=C\c2cnc(C(F)(F)F)nc2)C(=O)N1C(=O)c1ccc(Br)cc1 | 20.7 | 48.2 | 17.3 | 22.6 | 4.7 | 6.12 (≈ 2.8 µg/mL) | > 50 | 8.17 | – | – | – | – | –
6 | CC(=O)NC[C@H]1CN(c2ccc(N3CCOCC3)c(F)c2)C(=O)O1 [LINEZOLID] | – | 23.1 | – | – | – | – | – | – | – | – | – | – | –
7 | O=C1S/C(=C\c2cnc(C(F)(F)F)nc2)C(=O)N1C(=O)c1cc(F)cc(F)c1 | 10.3 | 21.9 | 9.7 | 11.2 | 11.8 | 0.71 (≈ 0.295 µg/mL) | > 50 | 70.4 | – | – | – | – | –
8 | O=C1S/C(=C\c2cnc(C(F)(F)F)nc2)C(=O)N1C(=O)c1ccc(C(F)(F)F)cc1 | 6.4 | 10.8 | 6.1 | 8.4 | 8.1 | 0.22 (≈ 0.0984 µg/mL) | > 50 | 227 | – | – | Active | Active | –
9 | O=C1S/C(=C\c2cnc(C(F)(F)F)nc2)C(=O)N1C(=O)c1ccc([N+](=O)[O-])cc1 | 10.9 | 24.1 | 10.2 | 11.7 | 12.9 | 1.06 (≈ 0.45 µg/mL) | > 50 | 47.2 | – | – | – | – | –
10 | O=C1S/C(=C\c2cnc(C(F)(F)F)nc2)C(=O)N1C(=O)c1ccc(F)cc1 | 13.7 | 31.7 | 12.8 | 15.1 | 16.8 | 3.25 (≈ 1.29 µg/mL) | > 50 | 15.4 | – | – | – | – | –
11 | O=C1S/C(=C\c2cnc(C(F)(F)F)nc2)C(=O)N1C(=O)c1ccccc1 | 27.1 | 62.5 | 19.5 | 28.3 | 30.6 | 5.62 (≈ 2.13 µg/mL) | > 50 | 8.89 | – | – | – | – | –
12 | O=C1S/C(=C\c2cnc(C(F)(F)F)nc2)C(=O)N1C(=O)c1ccc(O)cc1 | 37.4 | 79.2 | 28.3 | 40.9 | 53.7 | 10.9 (≈ 4.31 µg/mL) | > 50 | 4.58 | – | – | – | – | –
13 | GENTAMICIN | – | – | – | – | – | – | – | – | – | – | – | – | inactive
14 | Cc1ccc(C(=O)N2C(=O)S/C(=C\c3cnc(C(F)(F)F)nc3)C2=O)cc1 | 30.6 | 71.8 | 24.9 | 35.8 | 41.3 | 8.49 (≈ 3.34 µg/mL) | > 50 | 5.89 | – | – | – | – | –
15 | NNC(=O)c1ccncc1 [ISONIAZID] | – | – | – | – | – | 0.35 (≈ 0.048 µg/mL) | > 50 | 143 | – | – | – | – | –
